{"source": "patent US9951060B2", "about": "“2-acylaminothiazole derivative or salt thereof” (ASTELLAS PHARMA INC., priority 2014, dated 2018)", "key": {"[1]": {"biological_target": "human muscarinic M3 receptor (Homo sapiens, UniProt P20309)", "sequence (P20309 whole entry)": "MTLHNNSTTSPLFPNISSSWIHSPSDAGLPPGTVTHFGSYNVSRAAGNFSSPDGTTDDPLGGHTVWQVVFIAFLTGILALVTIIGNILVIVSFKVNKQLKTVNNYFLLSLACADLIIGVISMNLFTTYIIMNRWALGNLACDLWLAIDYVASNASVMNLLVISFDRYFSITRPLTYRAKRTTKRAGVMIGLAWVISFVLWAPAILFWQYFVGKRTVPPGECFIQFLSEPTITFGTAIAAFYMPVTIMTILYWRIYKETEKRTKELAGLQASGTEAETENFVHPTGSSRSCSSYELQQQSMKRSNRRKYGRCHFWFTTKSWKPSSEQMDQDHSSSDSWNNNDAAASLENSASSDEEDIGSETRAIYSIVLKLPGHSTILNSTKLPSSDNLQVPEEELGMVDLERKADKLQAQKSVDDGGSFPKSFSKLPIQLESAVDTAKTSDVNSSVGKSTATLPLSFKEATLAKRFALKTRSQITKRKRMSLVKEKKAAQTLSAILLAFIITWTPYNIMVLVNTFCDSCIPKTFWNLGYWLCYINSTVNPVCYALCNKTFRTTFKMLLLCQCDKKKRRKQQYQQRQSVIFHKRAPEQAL", "text": "Test Example 1: Evaluation of Muscarinic M3 Receptor Positive Allosteric Modulator Activity\na) Construction of Vector Expressing Human Muscarinic M3 Receptor\nA human muscarinic M3 receptor gene (GenBank Accession No.: NM_000740.2) was introduced into an expression vector pcDNA3.1™ (Life Technologies).\nb) Construction of Cells Stably Expressing Human Muscarinic M3 Receptor\nA vector expressing a human muscarinic M3 receptor was introduced into a CHO—K1 cell (ATCC No.: CCL-61). The introduction was carried out according to the attached instructions, using a transfection reagent, Lipofectoamine (registered trademark) 2000 Reagent (Life Technologies). The cells were incubated in an alpha Modified Eagle Minimum Essential Medium (α-MEM) including 2 mM glutamine, 10% fetal bovine serum, and 2.0 mg/mL Geneticin (registered trademark) (Life Technologies) for 4 weeks to acquire a drug-resistant clone.\nc) Measurement of Intracellular Ca^2+ Concentration\nThe cells obtained in b) above were suspended in an α-MEM including 2 mM glutamine, 10% fetal bovine serum, and 0.2 mg/mL Geneticin (registered trademark) to the amount from 1.2 to 1.5×10^4 cells/well the day before the experiment, dispensed into a 384-well plate (Model No. 355962, BD Biosciences), and incubated overnight at 37° C. and 5% CO2. The medium was replaced with a loading buffer (an assay buffer (Hank's balanced salt solution (HBSS), 1 g/L BSA, 20 mM HEPES (pH 7.5), and 2.5 mM probenecid), including 3.1 μM Fluo 4-AM (Dojindo Laboratories) and incubated for about 2 hours at room temperature. Thereafter, the cells were washed with a plate washer ELx405™ (BIO-TEK Instrument, Inc.) set with the assay buffer, and set in an intracellular Ca^2+ concentration measuring system (FLIPR^tetra (registered trademark), Molecular Device Co.). The test substances (final concentration of 1 μM or 10 μM) and carbachol (Sigma, final concentration of 0.0024 nM to 10 μM) which had each been dissolved in the assay buffer in advance were set in a FLIPR^tetra (registered trademark). The test substances were added to the cells in the device and after about 5 minutes, carbachol was added to the cells. An increase rate of the intracellular Ca^2+ concentration by carbachol was measured (excitement wavelength of 470 nm to 495 nm and a fluorescence wavelength of 515 nm to 575 nm).\nFor the muscarinic M3 receptor-positive allosteric modulator activity, a shift toward a lower concentration side of a carbachol concentration-response curve by the test substance was used as an index. […] For example, when the EC50 value of carbachol in the absence of the test substance was 0.1 μM and the EC50 value of carbachol in the presence of the test substance was 0.01 μM, the value of the muscarinic M3 receptor-positive allosteric modulator activity becomes 10, showing that the test substance causes a 10-fold shift in the EC50 value toward to the low concentration side."}, "[2]": {"system": "pelvic nerve stimulation-induced elevation of intravesical pressure", "assay": "Test Example 4: effect on pelvic nerve stimulation-induced elevation of intravesical pressure in anesthetized rats", "type": "in vivo, rat", "settings": "3 mg/kg intravenous; maximum effect within one hour; anesthetized SD female rats; pre-treatment = 100%", "experimental": "Test Example 4: Effect on Pelvic Nerve Stimulation-Induced Elevation of Intravesical Pressure in Anesthetized Rats\nThe effect of the Example compounds of the present invention in the pelvic nerve electrical stimulation-induced elevation of intravesical pressure using rats as an action of nerve stimulation-dependent bladder contraction in vivo was measured by the following method. That is, SD female rats (Japan SLC, Inc.) were used and its lower abdomen was dissected at the midline under pentobarbital anesthesia (50 mg/kg ip). After ligating and cutting the ureter on both sides, a cannula (PE-50) for measuring the intravesical pressure was inserted into the bladder from the external urethral opening and fixed by a clip. After injecting about 200 μL of saline through the cannula that had been inserted into the bladder, the other side was connected to a pressure transducer to measure the intravesical pressure. Under a stereoscopic microscope observation, the pelvic nerve in the vicinity of the bladder was peeled and an electrode for nerve stimulation (unique Medical) was placed. The abdominal cavity was filled with mineral oil (MP BIOMEDICALS). After placing in a post-operative stabilization period, the pelvic nerve was subjected to electrical stimulation (stimulation voltage: 10 V, stimulation frequency: 8 Hz, pulse width: 0.3 msec, and stimulation time: 10 seconds) to elicit the elevation of intravesical pressure, using an electrical stimulator (Nihon Kohden). By repeating the electrical stimulation at an interval of 2 minutes while adjusting the voltage, the voltage was adjusted to elicit about 50% to 70% elevation of intravesical pressure elicited at 10 V. Thereafter, by repeating the electrical stimulation at an interval of 10 minutes, the increase in the intravesical pressure by electrical stimulation was stabilized three times or more, and the test substance (an administration amount of 3 mg/kg) was then administered from the catheter detained in the vein at a volume of 1 mL/kg, thus measuring an effect of the elevation of the intravesical pressure of the test substance for 1 hour. The test substance was dissolved in water supplemented with 10% dimethylsulfoxide and 10% Cremophor.\nThe response was applied to a personal computer through a PowerLab (registered trademark) and analyzed by LabChart (registered trademark). The AUC of each elevation of the intravesical pressure was calculated, the intravesical pressure elevation rate (% of pre) after the treatment with the test substance was calculated by taking an average value of the values measured three times before the treatment with the test substance as 100%, and the maximum effect during a period within one hour after administration of the compound was considered as the effect of the test substance.\nThe elevation rates (% of pre) of the intravesical pressure when some Example compounds were administered at 3 mg/kg are shown in Table 4."}}}
{"molecule": "C[C@@H]1CCCN1Cc1sc(NC(=O)c2cnc(N3CCN(CCC(=O)O)CC3)cn2)nc1-c1cc(Cl)cs1", "note": "[Example 82]", "values": [{"measurement": "muscarinic M3 receptor-positive allosteric modulator activity, 1 μM (-fold shift)", "setting": "[1]", "result": "11 -fold shift"}, {"measurement": "muscarinic M3 receptor-positive allosteric modulator activity, 10 μM (-fold shift)", "setting": "[1]", "result": "43 -fold shift"}, {"measurement": "Increase rate (% of pre) of intravesical pressure", "setting": "[2]", "result": "138 % of pre"}]}
{"molecule": "C[C@@H]1CCCN1Cc1sc(NC(=O)c2cnc(N3CCN(CCC(=O)O)[C@@H](C)C3)cn2)nc1-c1cc(C(F)(F)F)cs1", "note": "[Example 95]", "values": [{"measurement": "muscarinic M3 receptor-positive allosteric modulator activity, 1 μM (-fold shift)", "setting": "[1]", "result": "91 -fold shift"}, {"measurement": "muscarinic M3 receptor-positive allosteric modulator activity, 10 μM (-fold shift)", "setting": "[1]", "result": "233 -fold shift"}, {"measurement": "Increase rate (% of pre) of intravesical pressure", "setting": "[2]", "result": "239 % of pre"}]}
{"molecule": "CCN(CC)Cc1sc(NC(=O)c2cnc(N3CCN(CCC(=O)O)CC3)cn2)nc1-c1cc(F)cc(C(F)(F)F)c1", "note": "[Example 109]", "values": [{"measurement": "muscarinic M3 receptor-positive allosteric modulator activity, 1 μM (-fold shift)", "setting": "[1]", "result": "30 -fold shift"}, {"measurement": "muscarinic M3 receptor-positive allosteric modulator activity, 10 μM (-fold shift)", "setting": "[1]", "result": "191 -fold shift"}, {"measurement": "Increase rate (% of pre) of intravesical pressure", "setting": "[2]", "result": "180 % of pre"}]}
{"molecule": "C[C@@H]1CC[C@@H](C)N1Cc1sc(NC(=O)c2cnc(N3CCN(CCC(=O)O)CC3)cn2)nc1-c1cc(F)cc(C(F)(F)F)c1", "note": "[Example 119]", "values": [{"measurement": "muscarinic M3 receptor-positive allosteric modulator activity, 1 μM (-fold shift)", "setting": "[1]", "result": "110 -fold shift"}, {"measurement": "muscarinic M3 receptor-positive allosteric modulator activity, 10 μM (-fold shift)", "setting": "[1]", "result": "503 -fold shift"}, {"measurement": "Increase rate (% of pre) of intravesical pressure", "setting": "[2]", "result": "173 % of pre"}]}
{"molecule": "CCOc1ccc(-c2nc(NC(=O)c3cnc(N4CCN(CCC(=O)O)C[C@H]4C)cn3)sc2CN2CCC[C@H]2CC)cc1C(F)(F)F", "note": "[Example 133]", "values": [{"measurement": "muscarinic M3 receptor-positive allosteric modulator activity, 1 μM (-fold shift)", "setting": "[1]", "result": "30 -fold shift"}, {"measurement": "muscarinic M3 receptor-positive allosteric modulator activity, 10 μM (-fold shift)", "setting": "[1]", "result": "164 -fold shift"}, {"measurement": "Increase rate (% of pre) of intravesical pressure", "setting": "[2]", "result": "150 % of pre"}]}
{"molecule": "CC[C@@H]1CCCN1Cc1sc(NC(=O)c2cnc(N3CCN(CCC(=O)O)C[C@H]3C)cn2)nc1-c1ccc(OC(C)C)c(C(F)(F)F)c1", "note": "[Example 135]", "values": [{"measurement": "muscarinic M3 receptor-positive allosteric modulator activity, 1 μM (-fold shift)", "setting": "[1]", "result": "25 -fold shift"}, {"measurement": "muscarinic M3 receptor-positive allosteric modulator activity, 10 μM (-fold shift)", "setting": "[1]", "result": "204 -fold shift"}, {"measurement": "Increase rate (% of pre) of intravesical pressure", "setting": "[2]", "result": "168 % of pre"}]}
{"molecule": "C[C@@H]1CCCN1Cc1sc(NC(=O)c2cnc(N3CCN(CCC(=O)O)C[C@H]3C)cn2)nc1-c1cc(F)cc(C(F)(F)F)c1", "note": "[Example 140]", "values": [{"measurement": "muscarinic M3 receptor-positive allosteric modulator activity, 1 μM (-fold shift)", "setting": "[1]", "result": "28 -fold shift"}, {"measurement": "muscarinic M3 receptor-positive allosteric modulator activity, 10 μM (-fold shift)", "setting": "[1]", "result": "158 -fold shift"}, {"measurement": "Increase rate (% of pre) of intravesical pressure", "setting": "[2]", "result": "148 % of pre"}]}
{"molecule": "C[C@@H]1CCCN1Cc1sc(NC(=O)c2cnc(N3CCN(CC(=O)O)C[C@H]3C)cn2)nc1-c1cc(F)cc(C(F)(F)F)c1", "note": "[Example 141]", "values": [{"measurement": "muscarinic M3 receptor-positive allosteric modulator activity, 1 μM (-fold shift)", "setting": "[1]", "result": "45 -fold shift"}, {"measurement": "muscarinic M3 receptor-positive allosteric modulator activity, 10 μM (-fold shift)", "setting": "[1]", "result": "159 -fold shift"}, {"measurement": "Increase rate (% of pre) of intravesical pressure", "setting": "[2]", "result": "175 % of pre"}]}
{"molecule": "C[C@@H]1CCCN1Cc1sc(NC(=O)c2cnc(N3CCN(CCC(=O)O)[C@@H](C)C3)cn2)nc1-c1cc(Cl)cs1", "note": "[Example 142]", "values": [{"measurement": "muscarinic M3 receptor-positive allosteric modulator activity, 1 μM (-fold shift)", "setting": "[1]", "result": "52 -fold shift"}, {"measurement": "muscarinic M3 receptor-positive allosteric modulator activity, 10 μM (-fold shift)", "setting": "[1]", "result": "160 -fold shift"}, {"measurement": "Increase rate (% of pre) of intravesical pressure", "setting": "[2]", "result": "199 % of pre"}]}
{"molecule": "CC[C@@H]1CCCN1Cc1sc(NC(=O)c2cnc(N3CCN(CCC(=O)O)[C@H](C)C3)cn2)nc1-c1cc(Cl)cs1", "note": "[Example 143]", "values": [{"measurement": "muscarinic M3 receptor-positive allosteric modulator activity, 1 μM (-fold shift)", "setting": "[1]", "result": "65 -fold shift"}, {"measurement": "muscarinic M3 receptor-positive allosteric modulator activity, 10 μM (-fold shift)", "setting": "[1]", "result": "81 -fold shift"}, {"measurement": "Increase rate (% of pre) of intravesical pressure", "setting": "[2]", "result": "172 % of pre"}]}
